As usually defined, the IC50 is the concentration needed to halve the response being measured.

Here are results for four compounds from PMC12004362 (RSC Advances, 2025).

One series relates to BT-12 cells. The experiment in a line: Secondary screening. In kind it is cell-based, human.
A further series concerns BT-16 cells. As to the kind of experiment: Secondary screening. In kind it is cell-based, human.
A short description of series [1]: in vitro. As to conditions: human, primary human astrocytes.
Series [2] has as its system human cerebral microvascular endothelial cells (hCMEC/D3 cells).
For a further series, the system named is primary human astrocytes. The experiment in a line: Cytotoxicity test.
Series [3] in a line: in vitro. As to conditions: human.
For series [4] the following is noted: acute use for gout flares, doses up to 1.8 mg within 2 hours; cited from earlier work.
Setting [5] is: Homo sapiens, BT-12, 72 h, read-out: BT-12 cells IC50, 2D culture, 72 h, MTT.
[6] abbreviates: read-out: BT-12 cells IC50, 2D culture, 72 h, MTT.
[7] abbreviates: Homo sapiens, BT-16, 72 h, read-out: BT-16 cells IC50, 2D culture, 72 h, MTT.
Where [8] appears, read: read-out: BT-16 cells IC50, 2D culture, 72 h, MTT.

Each structure is given as a SMILES string. Where two headings read alike, the source gives them in different places.

As for `C[C@H]1O[C@@H](O[C@H]2[C@@H](O)C[C@H](O[C@H]3[C@@H](O)C[C@H](O[C@H]4CC[C@@]5(C)[C@H](CC[C@@H]6[C@@H]5C[C@@H](O)[C@]5(C)[C@@H](C7=CC(=O)OC7)CC[C@]65O)C4)O[C@@H]3C)O[C@@H]2C)C[C@H](O)[C@@H]1O` [Digoxin], the IC50 in the series with BT-12 cells (setting [5]) was less than 100 nM; in the series with BT-12 cells (setting [6]) it was 80 nM; with BT-16 cells (setting [7]), less than 100 nM; with BT-16 cells (setting [8]), 76 nM.
In the case of `CC[C@H]1CN2CCc3cc(OC)c(OC)cc3[C@@H]2C[C@@H]1C[C@H]1NCCc2cc(OC)c(OC)cc21` [Emetine], in “in vitro [1]”, the CC50 at 72 h was found to be 1240 nM. For the same compound, the 50% inhibitory concentration (IC50) was less than 100 nM in the series with BT-12 cells (setting [5]), 90 nM in the series on BT-12 cells (setting [6]), less than 100 nM in the series on BT-16 cells (setting [7]) and 93 nM in the series on BT-16 cells (setting [8]).
Regarding `COc1cccc2c1C(=O)c1c(O)c3c(c(O)c1C2=O)C[C@@](O)(C(=O)CO)C[C@@H]3O[C@H]1C[C@H](N)[C@H](O)[C@H](C)O1` [Doxorubicin], in series [2] (CC50 hCMEC/D3 / IC50 BT-12), the “SI (CC50/IC50) hCMEC/D3: BT-12” value is 24.964. For the same compound, the “SI (CC50/IC50) hCMEC/D3: BT-16” value in series [2] (CC50 hCMEC/D3 / IC50 BT-16) is 16.64. The figures for the CC50 at 72 h in “in vitro [1]” and in “in vitro [3]” were 131 nM and 699 nM, respectively. Further, in the series with primary human astrocytes (CC50 astrocytes / IC50 BT-12), the “SI (CC50/IC50) Astrocytes: BT-12” value amounted to 4.679. Moreover, in the series on primary human astrocytes (CC50 astrocytes / IC50 BT-16), the “SI (CC50/IC50) Astrocytes: BT-16” value is 3.119. Moreover, the figures for the IC50 in the series on BT-12 cells (setting [5]) and in the series on BT-16 cells (setting [7]) were 28 nM and 42 nM, respectively.
On to `COc1cc2c(c(OC)c1OC)-c1ccc(OC)c(=O)cc1[C@@H](NC(C)=O)CC2` [Colchicine], for which the “Diarrhea, most frequently reported side effect” value in series [4] is listed as 23%. The CC50 at 72 h in the series “in vitro [1]” and in “in vitro [3]” was more than 20000 nM each time.
